Source: US7517909B2, “Amino acids with affinity for the α2δ-protein” (Pfizer Inc, priority 2002, dated 2009)
Where a name gives a salt, the structure may show the parent alone.

Assays:
[1] = target: T1, α2δ-subunit of a calcium channel (Sus scrofa, UniProt A0A287BIN3); assay: radioligand binding assay using [3H]-gabapentin; settings: α2δ-subunit derived from porcine brain tissue
T1 construct: the α2δ-subunit derived from porcine brain tissue was used; from tissue; host or cells: porcine brain tissue
T1 sequence (A0A287BIN3 25-1109): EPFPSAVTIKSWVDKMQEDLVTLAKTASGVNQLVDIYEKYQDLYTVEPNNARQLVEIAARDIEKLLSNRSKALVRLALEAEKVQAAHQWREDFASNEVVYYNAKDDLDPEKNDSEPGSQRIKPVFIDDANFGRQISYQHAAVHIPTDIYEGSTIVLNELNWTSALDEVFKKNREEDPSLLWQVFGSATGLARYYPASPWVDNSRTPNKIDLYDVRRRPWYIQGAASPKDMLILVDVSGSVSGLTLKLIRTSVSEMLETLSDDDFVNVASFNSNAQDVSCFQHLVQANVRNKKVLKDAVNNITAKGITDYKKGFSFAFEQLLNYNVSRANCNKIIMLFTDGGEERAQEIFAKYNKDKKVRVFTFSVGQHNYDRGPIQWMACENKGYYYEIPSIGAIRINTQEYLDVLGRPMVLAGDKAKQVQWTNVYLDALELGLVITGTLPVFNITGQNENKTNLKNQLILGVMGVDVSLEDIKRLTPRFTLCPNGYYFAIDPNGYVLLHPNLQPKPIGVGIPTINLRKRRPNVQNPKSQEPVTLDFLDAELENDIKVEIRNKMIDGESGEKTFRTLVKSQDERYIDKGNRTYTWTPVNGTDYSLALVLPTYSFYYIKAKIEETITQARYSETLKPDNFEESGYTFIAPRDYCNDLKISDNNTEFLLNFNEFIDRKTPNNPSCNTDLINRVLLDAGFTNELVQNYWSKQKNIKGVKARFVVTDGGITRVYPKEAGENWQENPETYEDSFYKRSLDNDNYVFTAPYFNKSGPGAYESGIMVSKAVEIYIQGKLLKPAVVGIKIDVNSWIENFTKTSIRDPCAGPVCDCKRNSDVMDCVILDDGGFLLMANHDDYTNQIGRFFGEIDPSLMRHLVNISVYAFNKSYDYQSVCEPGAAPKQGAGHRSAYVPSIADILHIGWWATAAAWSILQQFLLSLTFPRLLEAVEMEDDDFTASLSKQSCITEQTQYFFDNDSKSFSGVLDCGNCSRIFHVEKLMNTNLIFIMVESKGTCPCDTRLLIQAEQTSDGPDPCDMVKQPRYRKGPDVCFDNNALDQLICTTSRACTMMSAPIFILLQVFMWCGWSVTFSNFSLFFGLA
Source text: The ability of compounds of the present invention to bind to the α2δ-subunit of a calcium channel can be determined using the following binding assay.
The radioligand binding assay using [^3H]-gabapentin and the α2δ-subunit derived from porcine brain tissue was used (See, Gee, Nicolas S et at “The novel anticonvulsant drug, gabapentin (Neurontin), binds to the α2δ subunit of a calcium channel”. J. Biol. Chem. (1996), 271(10), 5768-76). Compounds of the invention bind with nanomolar to micromolar affinity for the α2δ protein.

melting point [°C]	SMILES	affinity to the α2δ protein [1] [nM]
142.5 to 142.7	CCC[C@@H](C)C[C@H](N)CC(=O)O.Cl	–
142.5 to 143.3	CCCC[C@@H](C)C[C@H](N)CC(=O)O (as salt: hydrochloride)	–
194.2 to 195.2	CCCC(C)(C)C[C@H](N)CC(=O)O (as salt: hydrochloride)	–
–	CCC[C@@H](C)C[C@H](CN)C(=O)O [(2R,4R)-2-Aminomethyl-4-methyl-heptanoic acid]	29
–	CCC[C@H](C)C[C@H](N)CC(=O)O [(3S,5S)-3-amino-5-methyl-octanoic acid]	1000
–	CC(C)CCCC(C)C[C@@H](N)CC(=O)O (stereo partly drawn) [R-3-amino-5,9-dimethyl-decanoic acid]	527

SMILES	melting point [°C]	affinity to the α2δ protein [1] [nM]
CCC[C@@H](C)C[C@H](CN)C(=O)O (as salt: hydrochloride) [(2R,4R)-2-Aminomethyl-4-methyl-heptanoic acid]	226.3 to 228	–
CCCC(C)(C)CC(CN)C(=O)O.Cl (stereo not drawn) [2-Aminomethyl-4,4-dimethyl-heptanoic acid hydrochloride]	229.5 to 231	83
